Reference: ChEMBL document CHEMBL1157899, “Molecular modelling, synthesis and acetylcholinesterase inhibition of ethyl 5-amino-2-methyl-6,7,8,9-tetrahydrobenzo[b][1,8]naphthyridine-3-carboxylate” (Bioorg Med Chem Lett, 2010)

Assays:
[1] = biological target: Cholinesterase (Equus caballus, UniProt P81908); experiment: Inhibition of Equus caballus BuChE
[2] = biological target: Acetylcholinesterase (Electrophorus electricus, UniProt O42275); experiment: Inhibition of electric eel AChE
[3] = biological target: Acetylcholinesterase (Homo sapiens, UniProt P22303); experiment: Inhibition of human AChE
Sequence of Acetylcholinesterase (Homo sapiens, UniProt P22303) (P22303 whole entry): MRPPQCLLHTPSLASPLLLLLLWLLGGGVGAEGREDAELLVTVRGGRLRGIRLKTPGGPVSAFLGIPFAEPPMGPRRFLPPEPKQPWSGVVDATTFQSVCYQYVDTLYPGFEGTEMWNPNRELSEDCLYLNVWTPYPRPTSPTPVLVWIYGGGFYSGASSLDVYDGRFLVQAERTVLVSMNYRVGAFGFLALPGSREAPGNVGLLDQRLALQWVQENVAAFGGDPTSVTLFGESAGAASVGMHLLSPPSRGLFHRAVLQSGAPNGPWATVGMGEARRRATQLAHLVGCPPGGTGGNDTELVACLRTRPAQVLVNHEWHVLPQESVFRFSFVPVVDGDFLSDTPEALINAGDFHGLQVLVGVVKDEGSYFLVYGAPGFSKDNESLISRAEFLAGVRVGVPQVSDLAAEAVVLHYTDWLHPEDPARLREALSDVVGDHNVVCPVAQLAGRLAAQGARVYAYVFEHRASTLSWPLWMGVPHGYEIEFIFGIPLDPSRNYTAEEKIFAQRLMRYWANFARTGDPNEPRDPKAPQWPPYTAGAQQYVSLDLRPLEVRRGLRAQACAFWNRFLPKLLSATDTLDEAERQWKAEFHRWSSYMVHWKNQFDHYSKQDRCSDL

Sequence of Cholinesterase (P81908 whole entry): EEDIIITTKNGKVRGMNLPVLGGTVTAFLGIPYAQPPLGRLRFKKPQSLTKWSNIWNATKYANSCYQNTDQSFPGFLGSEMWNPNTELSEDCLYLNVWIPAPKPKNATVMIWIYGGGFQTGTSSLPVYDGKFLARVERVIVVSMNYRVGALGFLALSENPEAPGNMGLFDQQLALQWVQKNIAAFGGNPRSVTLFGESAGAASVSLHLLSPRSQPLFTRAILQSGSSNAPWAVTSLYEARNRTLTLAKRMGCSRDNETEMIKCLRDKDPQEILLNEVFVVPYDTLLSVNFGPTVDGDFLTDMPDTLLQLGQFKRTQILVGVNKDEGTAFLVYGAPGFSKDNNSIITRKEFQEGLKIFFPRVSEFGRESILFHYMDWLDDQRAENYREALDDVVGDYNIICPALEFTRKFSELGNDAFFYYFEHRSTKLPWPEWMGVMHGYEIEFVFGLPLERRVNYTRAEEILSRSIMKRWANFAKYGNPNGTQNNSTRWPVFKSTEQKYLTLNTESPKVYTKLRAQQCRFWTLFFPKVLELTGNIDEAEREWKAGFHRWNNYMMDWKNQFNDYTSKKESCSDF
Sequence of Acetylcholinesterase (Electrophorus electricus, UniProt O42275) (O42275 whole entry): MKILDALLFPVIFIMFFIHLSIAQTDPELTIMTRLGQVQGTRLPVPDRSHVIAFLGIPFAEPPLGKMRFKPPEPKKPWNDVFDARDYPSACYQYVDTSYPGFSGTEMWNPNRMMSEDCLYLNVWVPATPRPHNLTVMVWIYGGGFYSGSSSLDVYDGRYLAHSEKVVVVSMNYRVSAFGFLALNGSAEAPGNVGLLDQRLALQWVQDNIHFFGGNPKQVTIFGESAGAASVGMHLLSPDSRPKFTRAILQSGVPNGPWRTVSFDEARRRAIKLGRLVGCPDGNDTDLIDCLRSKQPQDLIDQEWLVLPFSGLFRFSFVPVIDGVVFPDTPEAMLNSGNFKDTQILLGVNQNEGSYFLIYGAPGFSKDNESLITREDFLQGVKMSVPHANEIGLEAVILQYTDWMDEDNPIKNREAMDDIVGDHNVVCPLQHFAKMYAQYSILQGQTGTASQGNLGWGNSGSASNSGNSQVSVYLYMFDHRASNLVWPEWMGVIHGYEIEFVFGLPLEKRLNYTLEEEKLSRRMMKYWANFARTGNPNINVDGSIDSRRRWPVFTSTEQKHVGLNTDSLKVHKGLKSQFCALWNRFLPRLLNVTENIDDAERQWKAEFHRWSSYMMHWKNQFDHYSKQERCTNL

CCOC(=O)c1c(C)nc2nc3c(c(N)c2c1-c1ccccc1)CCCC3 showed an IC50 ([1]; read-out: IC50) of 5.03 µM.
For CCOC(=O)c1cc2c(N)c3c(nc2nc1C)CCCC3, the IC50 [2] was 0.06 µM, the IC50 ([1]; read-out: IC50) was 12 µM and the IC50 [3] was 0.78 µM.
Cc1nc2nc3c(c(N)c2cc1C(=O)[O-])CCCC3.[Na+] was tested, and the IC50 [2] was 5.3 µM and the IC50 [1] was “Not Active”.
Cc1nc2nc3c(c(N)c2cc1C(=O)O)CCCC3 was tested, and the IC50 [2] was 15 µM and the IC50 [1] was “Not Active”.
